# Assay results from patent US10077288B2, “Hydroxystatin derivatives for the treatment of arthrosis” (Merck Patent GmbH, priority 2012, dated 2018).
# Target: T1, cathepsin D isolated from the human liver (Homo sapiens, UniProt P07339)
# T1 construct: cathepsin D isolated from the human liver (Sigma-Aldrich); purchased Sigma-Aldrich; host or cells: human liver (tissue-derived, not recombinant)
# Assay: In-vitro fluorescence assay for identification of cathepsin D inhibitors
# Format: biochemical
# Settings: human liver cathepsin D 1.4 nM, pH 5.5; read-out: CatD assay IC50-(M)
# Protocol: EXAMPLE 4: IN-VITRO FLUORESCENCE ASSAY FOR IDENTIFICATION OF CATHEPSIN D INHIBITORS
# In order to identify modulators of cathepsin D activity, a continuous enzymatic test was carried out with a synthetic peptide which carries a fluorescent group (MCA=(7-methoxycoumarin-4-yl)acetyl) which is quenched by energy transfer from a Dpn (2,4 dinitrophenyl) group on the same molecule, in Greiner 384-well nb microtitre plates. Cleavage of the peptidic substrate by cathepsin D causes an increase in the fluorescence intensity. In order to determine the efficacy of substances, the time-dependent increase in the fluorescence intensity in the presence of the substance was compared with the time-dependent increase in fluorescence in the absence of substances. The reference substance used was pepstatin A (Sigma-Aldrich). The substrate used was MCA-GKPILFFRLK(Dnp)d-R—NH2 (Enzo Life Sciences, Lörrach). The enzyme employed was cathepsin D isolated from the human liver (Sigma-Aldrich) in a final concentration of 1.4 nM. The test was carried out in 100 mM sodium acetate buffer, 1.25% (v/v) of DMSO, 0.25% (w/v) of Chaps, pH 5.5. 2 μl of each substance solution with serially diluted substance concentration were added to in each case 4 μl of cathepsin D solution and incubated at room temperature for 10 min. The reaction was started by addition of 2 μl of substrate solution (final concentration 5 μM). After carrying out a starting-point fluorescence measurement (excitation wavelength 340 nm/emission wavelength 450 nm) using an Envision multilabel reader (Perkin Elmer), the reaction was incubated at room temperature for 60 min. The amount of peptide fragment cleaved off during the reaction time was subsequently measured by determination of the increase in the fluorescence intensity at 450 nm (excitation wavelength 340 nm).
# T1 sequence (P07339 65-161 limits assumed): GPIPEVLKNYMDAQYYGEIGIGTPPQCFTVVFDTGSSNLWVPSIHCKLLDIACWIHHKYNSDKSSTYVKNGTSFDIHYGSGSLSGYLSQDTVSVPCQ
# T1 sequence (P07339 169-412 limits assumed): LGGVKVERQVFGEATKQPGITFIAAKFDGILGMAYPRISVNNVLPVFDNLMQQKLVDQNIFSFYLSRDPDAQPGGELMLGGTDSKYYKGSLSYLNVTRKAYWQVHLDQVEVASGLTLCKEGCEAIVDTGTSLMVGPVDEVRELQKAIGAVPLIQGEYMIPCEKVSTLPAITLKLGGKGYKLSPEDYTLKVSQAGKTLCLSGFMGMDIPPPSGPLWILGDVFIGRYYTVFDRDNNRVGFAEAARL
row,SMILES,IC50 [M]
1,"CC[C@H](C)[C@H](NC(=O)C[C@H](O)[C@H](Cc1ccccc1)NC(=O)[C@@H](NC(=O)Cc1cccc(OCCN)c1)[C@@H](C)CC)C(=O)N[C@H](C(=O)O)C(C)C [Compound 41, (S)-2-{(2S,3S)-2-[(3S,4S)-4-((S)-2-{2-[3-(2-aminoethoxy)phenyl]-acetylamino}-3-methyl-1-(S)-oxopentylamino)-3-hydroxy-5-phenylpentanoylamino]-3-methylpentanoylamino}-3-methylbutyric acid]",4.8e-07
2,"CC[C@H](C)[C@H](NC(=O)C[C@H](O)[C@H](Cc1ccccc1)NC(=O)[C@@H](NC(=O)C(C)(C)Oc1ccc2ccccc2c1)C(C)C)C(=O)N[C@H](C(=O)O)C(C)C [Compound 6, (S)-2-[(2S,3S)-2-((3S,4S)-3-hydroxy-4-{(S)-3-methyl-2-[2-methyl-2-(naphthalen-2-yloxy)propionylamino]butyrylamino}-5-phenylpentanoylamino)-3-methylpentanoylamino]-3-methylbutyric acid]",2.3e-07
3,"CC[C@H](C)[C@H](NC(=O)C[C@H](O)[C@H](Cc1ccccc1)NC(=O)[C@@H](NC(=O)Cc1ccccc1OC)C(C)C)C(=O)N[C@H](C(=O)OCc1ccccc1)C(C)C [Compound 22, benzly (S)-2-[(2S,3S)-2-((3S,4S)-3-hydroxy-4-{(S)-2-[2-(2-methoxy-phenyl)acetylamino]-3-methylbutyrylamino}-5-phenylpentanoylamino)-3-methylpentanoylamino]-3-methylbutyrate]",2.1e-07
4,"CC[C@H](C)[C@H](NC(=O)C[C@H](O)[C@H](Cc1ccccc1)NC(=O)[C@@H](NC(=O)Cc1cccc(OCCNC(=O)OC(C)(C)C)c1)[C@@H](C)CC)C(=O)N[C@H](C(=O)O)C(C)C [Compound 39, (S)-2-{(2S,3S)-2-[(3S,4S)-4-((S)-2-{2-[3-(2-tert-butoxycarbonyl-aminoethoxy)phenyl]acetylamino}-3-methyl-1-(S)-oxopentylamino)-3-hydroxy-5-phenylpentanoylamino]-3-methylpentanoylamino}-3-methylbutyric acid]",3.9e-08
5,"CC[C@H](C)[C@H](NC(=O)C[C@H](O)[C@H](Cc1ccccc1)NC(=O)[C@@H](NC(=O)C(c1ccccc1)c1ccccc1)C(C)C)C(=O)N[C@H](C(=O)OCc1ccccc1)C(C)C [Compound 32, benzyl (S)-2-{(2S,3S)-2-[(3S,4S)-4-((S)-2-diphenylacetylamino-3-methylbutyrylamino)-3-hydroxy-5-phenylpentanoylamino]-3-methylpentanoylamino}-3-methylbutyrate]",3.2e-07
6,"CC[C@H](C)[C@H](NC(=O)C[C@H](O)[C@H](Cc1ccccc1)NC(=O)[C@@H](NC(=O)C(CC)(CC)CC)C(C)C)C(=O)N[C@H](C(=O)O)C(C)C [Compound 38, (S)-2-((2S,3S)-2-{(3S,4S)-4-[(S)-2-(2,2-diethylbutyrylamino)-3-methylbutyrylamino]-3-hydroxy-5-phenylpentanoylamino}-3-methylpentanoylamino)-3-methylbutyric acid]",7e-06
7,"CC[C@H](C)[C@H](NC(=O)C[C@H](O)[C@H](Cc1ccccc1)NC(=O)[C@@H](NC(=O)Cc1ccc2ccccc2c1)C(C)C)C(=O)N[C@H](C(=O)OCc1ccccc1)C(C)C [Compound 16, benzly (S)-2-((2S,3S)-2-{(3S,4S)-3-hydroxy-4-[(S)-3-methyl-2-(2-naphthalen-2-ylacetylamino)butyrylamino]-5-phenylpentanoylamino}-3-methylpentanoylamino)-3-methylbutyrate]",1.5e-07

# More lines, in order of falling IC50, values ahead:
row,IC50 [M],SMILES
1,1e-07,"CC[C@H](C)[C@H](NC(=O)C[C@H](O)[C@H](Cc1ccccc1)NC(=O)[C@@H](NC(=O)COc1ccc(C)c(C)c1)C(C)C)C(=O)N[C@H](C(=O)O)C(C)C [Compound 29, (S)-2-[(2S,3S)-2-((3S,4S)-4-{(S)-2-[2-(3,4-dimethylphenoxy)acetylamino]-3-methylbutyrylamino}-3-hydroxy-5-phenylpentanoylamino)-3-methylpentanoylamino]-3-methylbutyric acid]"
2,7.1e-08,"CC[C@H](C)[C@H](NC(=O)C[C@H](O)[C@H](Cc1ccccc1)NC(=O)[C@@H](NC(=O)CCCc1ccccc1)C(C)C)C(=O)N[C@H](C(=O)OCc1ccccc1)C(C)C [Compound 2, benzly (S)-2-((2S,3S)-2-{(3S,4S)-3-hydroxy-4-[(S)-3-methyl-2-(4-phenylbutyrylamino)butyrylamino]-5-phenylpentanoylamino}-3-methylpentanoylamino)-3-methylbutyrate]"
3,4e-08,"CC[C@H](C)[C@H](NC(=O)C[C@H](O)[C@H](Cc1ccccc1)NC(=O)[C@@H](NC(=O)Cc1cccc(Oc2ccccc2)c1)C(C)C)C(=O)N[C@H](C(=O)OCc1ccccc1)C(C)C [Compound 19, benzly (S)-2-[(2S,3S)-2-((3S,4S)-3-hydroxy-4-{(S)-3-methyl-2-[2-(3-phenoxyphenyl)acetylamino]butyrylamino}-5-phenylpentanoylamino)-3-methylpentanoylamino]-3-methylbutyrate]"
4,3.4e-08,"CC[C@H](C)[C@H](NC(=O)C[C@H](O)[C@H](Cc1ccccc1)NC(=O)[C@@H](NC(=O)Cc1cc(OC(F)(F)F)ccc1OC)C(C)C)C(=O)N[C@H](C(=O)OCc1ccccc1)C(C)C [Compound 18, benzly (S)-2-[(2S,3S)-2-((3S,4S)-3-hydroxy-4-{(S)-2-[2-(2-methoxy-5-trifluoromethoxyphenyl)acetylamino]-3-methylbutyrylamino}-5-phenylpentanoylamino)-3-methylpentanoylamino]-3-methylbutyrate]"
5,2.5e-08,"CCOc1cccc(CC(=O)N[C@H](C(=O)N[C@@H](Cc2ccccc2)[C@@H](O)CC(=O)N[C@H](C(=O)N[C@H](C(=O)OCc2ccccc2)C(C)C)[C@@H](C)CC)C(C)C)c1 [Compound 12, benzly (S)-2-[(2S,3S)-2-((3S,4S)-4-{(S)-2-[2-(3-ethoxyphenyl)-acetylamino]-3-methylbutyrylamino}-3-hydroxy-5-phenylpentanoylamino)-3-methylpentanoylamino]-3-methylbutyrate]"
6,3.5e-09,"CCC(CC)NC(=O)[C@@H](NC(=O)C[C@H](O)[C@H](Cc1ccccc1)NC(=O)[C@@H](NC(=O)[C@H](CC(C)C)NC(=O)Cc1ccccc1)C(C)C)[C@@H](C)CC [Compound 43, N-[(1S,2S)-1-(1-ethylpropylcarbamoyl)-2-methylbutyl]-(2S,5S)-3-hydroxy-4-[(S)-3-methyl-2-((S)-4-methyl-2-phenylacetylaminopentanoylamino)-1-oxobutylamino]-5-phenylpentanamide]"
7,1.8e-09,"CC[C@H](C)[C@H](NC(=O)C[C@H](O)[C@H](Cc1ccccc1)NC(=O)[C@@H](NC(=O)[C@H](CC(C)C)NC(=O)CC(C)C)C(C)C)C(=O)NC1CCCC1 [Compound 46, N-((1S,2S)-1-cyclopentylcarbamoyl-2-methylbutyl)-(2S,5S)-3-hydroxy-4-{(S)-3-methyl-2-[(S)-4-methyl-2-(3-methylbutyrylamino)-pentanoylamino]butyrylamino}-5-phenylpentanamide]"
